Measured values: patent US20200239530A1, “COMPOUNDS AND METHODS OF MODULATING PROTEIN DEGRADATION” (Vividion Therapeutics, Inc., priority 2017, published 2020)

Columns and labels:
[1] = biological target: T1, AKAP1 A-kinase anchor protein 1, mitochondrial (Homo sapiens, UniProt Q92667); assay: Cysteine liganding, probe competition; type: binding
T1 construct: Cells were resuspended in cold PBS on ice and sonicated with a probe sonicator to achieve lysis; endogenous in cells
T1 sequence (Q92667 30-903): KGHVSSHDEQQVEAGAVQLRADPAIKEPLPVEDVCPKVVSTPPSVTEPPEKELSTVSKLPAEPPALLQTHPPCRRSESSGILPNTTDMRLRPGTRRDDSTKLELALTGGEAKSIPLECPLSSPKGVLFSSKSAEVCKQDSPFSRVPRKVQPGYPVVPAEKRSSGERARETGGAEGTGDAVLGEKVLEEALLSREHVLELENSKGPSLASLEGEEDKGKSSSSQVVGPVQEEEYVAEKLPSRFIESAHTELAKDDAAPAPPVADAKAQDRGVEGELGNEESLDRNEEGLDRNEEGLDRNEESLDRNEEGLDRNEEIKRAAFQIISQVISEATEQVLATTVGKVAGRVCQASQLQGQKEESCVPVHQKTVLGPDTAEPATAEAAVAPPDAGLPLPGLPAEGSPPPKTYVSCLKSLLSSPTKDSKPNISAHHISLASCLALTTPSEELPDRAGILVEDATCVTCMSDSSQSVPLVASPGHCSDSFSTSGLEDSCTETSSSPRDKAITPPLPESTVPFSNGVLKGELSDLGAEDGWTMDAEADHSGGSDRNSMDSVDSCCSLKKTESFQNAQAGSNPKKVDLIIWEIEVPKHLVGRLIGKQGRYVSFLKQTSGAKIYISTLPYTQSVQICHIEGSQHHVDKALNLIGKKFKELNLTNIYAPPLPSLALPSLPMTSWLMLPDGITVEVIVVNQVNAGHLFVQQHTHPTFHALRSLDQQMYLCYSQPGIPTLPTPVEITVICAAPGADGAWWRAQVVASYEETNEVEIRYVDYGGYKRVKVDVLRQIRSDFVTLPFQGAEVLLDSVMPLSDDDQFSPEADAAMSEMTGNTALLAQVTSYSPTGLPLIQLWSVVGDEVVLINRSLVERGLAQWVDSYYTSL
In short: (§1)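 Steps: sonicate cells in cold PBS; treat 5 mg/ml lysate with compound (25° C, 1 hr); add desthiobiotin iodoacetamide probe from a 10 mM stock (25° C, 1 hr); precipitate, reduce, alkylate, digest with trypsin; capture labelled peptides on streptavidin for analysis.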

[2] = biological target: T2, DCAF17 DDB1- and CUL4-associated factor 17 (Homo sapiens, UniProt Q5H9S7); assay: Cysteine liganding, probe competition; type: binding
T2 construct: Cells were resuspended in cold PBS on ice and sonicated with a probe sonicator to achieve lysis; endogenous in cells
T2 sequence (Q5H9S7 1-520): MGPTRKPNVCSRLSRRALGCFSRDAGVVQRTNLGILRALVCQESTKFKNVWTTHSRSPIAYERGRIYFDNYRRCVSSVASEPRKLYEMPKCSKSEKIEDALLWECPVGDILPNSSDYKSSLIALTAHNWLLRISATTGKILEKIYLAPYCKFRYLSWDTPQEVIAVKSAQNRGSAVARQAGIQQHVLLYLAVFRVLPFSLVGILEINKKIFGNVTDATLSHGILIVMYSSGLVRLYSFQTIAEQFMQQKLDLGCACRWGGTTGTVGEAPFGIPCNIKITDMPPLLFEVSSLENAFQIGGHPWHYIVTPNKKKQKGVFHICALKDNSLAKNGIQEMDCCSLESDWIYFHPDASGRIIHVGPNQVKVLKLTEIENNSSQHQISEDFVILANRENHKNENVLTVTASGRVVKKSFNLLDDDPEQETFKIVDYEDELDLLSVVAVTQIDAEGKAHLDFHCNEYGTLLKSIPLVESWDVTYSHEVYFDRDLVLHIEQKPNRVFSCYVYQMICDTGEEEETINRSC
In short: as §1

Row | SMILES | Liganded ([1]; AKAP1 Res# 376, uniprot Q92667) | Liganded ([2]; DCAF17 Res# 20, uniprot Q5H9S7) | 100 Max ([2]; uniprot Q5H9S7) | 100 ave ([2]; uniprot Q5H9S7) | 500 Max ([2]; uniprot Q5H9S7) | 500 ave ([2]; uniprot Q5H9S7) | 100 ave ([1]; uniprot Q92667) | 500 Max ([1]; uniprot Q92667) | 500 ave ([1]; uniprot Q92667) | 100 Max ([1]; uniprot Q92667, in % (unit assumed))
1 | COc1ccc2c(c1)CCCN2C(=O)CCl [KB02] | YES | YES | 60.8 | 40.3 | 91.7 | 91.7 |  |  |  | 
2 | O=C(CCl)Nc1cc(C(F)(F)F)cc(C(F)(F)F)c1 [KBO3] |  |  | −21.2 | −21.2 |  |  | −0.33 | 57.81 | 45.04 | 18.92
